We go through three compounds from ChEMBL document CHEMBL3046668, “Phytoene desaturase inhibition by O-(2-phenoxy)ethyl-N-aralkylcarbamates” (J Agric Food Chem, 2003).

The target in the assay is 15-cis-phytoene desaturase (Synechococcus elongatus (strain PCC 7942) (Anacystis nidulans R2), UniProt P26294). Description: Inhibition of Synechococcus PCC 7942 phytoene desaturase expressed in Escherichia coli JM101 using phytoene as substrate after 8 hr by Dixon plot analysis. The note with it: read-out: I50.
Chain of 15-cis-phytoene desaturase (P26294 whole entry): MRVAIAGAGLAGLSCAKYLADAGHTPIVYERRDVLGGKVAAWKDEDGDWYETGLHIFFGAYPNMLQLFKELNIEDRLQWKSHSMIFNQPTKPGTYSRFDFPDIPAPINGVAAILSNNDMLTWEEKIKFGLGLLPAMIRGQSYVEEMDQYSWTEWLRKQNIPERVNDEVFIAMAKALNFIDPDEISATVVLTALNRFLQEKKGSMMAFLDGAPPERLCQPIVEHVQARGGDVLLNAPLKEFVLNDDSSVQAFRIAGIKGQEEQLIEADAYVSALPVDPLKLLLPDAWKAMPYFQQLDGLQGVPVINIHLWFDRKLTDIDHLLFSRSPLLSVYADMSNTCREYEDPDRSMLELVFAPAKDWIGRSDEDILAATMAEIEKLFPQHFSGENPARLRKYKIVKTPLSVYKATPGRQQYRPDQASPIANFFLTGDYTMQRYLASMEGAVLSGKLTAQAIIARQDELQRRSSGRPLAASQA
Regarding `CNc1cnn(-c2cccc(C(F)(F)F)c2)c(=O)c1Cl` [NORFLURAZONE], the IC50 worked out at 29 nM.

In the case of `CCC(CSc1cccc(Cl)c1)OC(=O)NCc1ccccc1` (stereo not drawn), the IC50 worked out at 5400 nM. In the case of `CCC(COc1cccc(C(F)(F)F)c1)OC(=O)NCc1ccccc1` (stereo not drawn), the IC50 amounted to 13 nM.
